Counter-ions that a name gives are not always drawn.
Key:
Osh4 [1] = biological target: T1, Osh4 (Saccharomyces cerevisiae, UniProt P35844); assay: In vitro radioligand binding assay with [3H]-cholesterol; conditions: Osh4, pH 7.5, 100 pmol protein
T1 construct: made in house; host or cells: E. coli BL21
Source text: (§1) To validate these in vivo findings with independent in vitro approaches, Pry1, NPC2, Osh4, and STARD1 were expressed as C terminally polyhistidine-tagged proteins in Escherichia coli and purified using Ni^2+-NTA agarose beads. […] Protein-bound radioligand was separated from unbound ligand by absorption to an ion-exchange matrix ([13], [51]) (Fig. 2A).
(§2) Schematic representation of the workflow of the in vitro lipid binding assay. Purified proteins (blue, 100 pmol), different concentrations of radiolabeled [^3H]-cholesterol (green, 0–400 pmol) are incubated together to allow binding. Proteins were separated from unbound ligand by adsorption to an ion exchange matrix (gray), followed by washing steps. The protein-bound ligand is then eluted and quantified by liquid scintillation counting. Nonspecific binding is assessed in parallel by performing the assay in the absence of protein.
(§3) The in vitro radioligand binding assay was performed essentially as previously described ([13], [39]). Purified proteins (100 pmol) were incubated with 100 to 400 pmol of [^3H]-cholesterol (1 mCi/ml, specific activity 50 Ci/mmol; American Radiolabeled Chemicals, Inc), in binding buffer for 1 h at 30 °C. The pH of the binding buffer was adjusted based on the isoelectric point of the protein: for Pry1 and Osh4, 20 mM Tris (pH 7.5), 30 mM NaCl; for STARD1, the same buffer at pH 8.5; and for NPC2, 20 mM potassium acetate (pH 5.5), 30 mM NaCl.
(§4) Proteins were then separated from unbound ligand by adsorption to SP Sepharose (GE Healthcare) beads for NPC2, and to Q Sepharose beads (GE Healthcare) beads for all other proteins. Beads were washed and proteins were eluted with binding buffer containing 1 M NaCl. Protein-bound radioligand was quantified by scintillation counting. Ion exchange beads without protein were used to define nonspecific binding. Data were analyzed using Prism software (GraphPad) and are presented as the mean ± SD from three independent experiments.

Pry1 [2] = biological target: T2, Pry1 (Saccharomyces cerevisiae, UniProt P47032); assay: as above; conditions: Pry1, pH 7.5, 100 pmol protein
T2 construct: made in house; host or cells: E. coli BL21
T2 sequence (P47032 20-299): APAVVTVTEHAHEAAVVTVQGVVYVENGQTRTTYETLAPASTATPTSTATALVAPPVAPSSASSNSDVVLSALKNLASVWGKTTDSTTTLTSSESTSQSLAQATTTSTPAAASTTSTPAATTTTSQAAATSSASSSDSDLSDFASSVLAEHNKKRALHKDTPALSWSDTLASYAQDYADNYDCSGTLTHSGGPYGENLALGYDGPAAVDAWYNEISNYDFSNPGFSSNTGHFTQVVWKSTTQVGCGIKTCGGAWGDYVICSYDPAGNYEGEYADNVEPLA
Source text: as §1, §2, §3, §4

NPC2 = biological target: T3, NPC2 (Homo sapiens, UniProt P61916); assay: as above; conditions: NPC2, pH 5.5, 100 pmol protein
T3 construct: made in house; host or cells: E. coli
T3 sequence (P61916 20-151): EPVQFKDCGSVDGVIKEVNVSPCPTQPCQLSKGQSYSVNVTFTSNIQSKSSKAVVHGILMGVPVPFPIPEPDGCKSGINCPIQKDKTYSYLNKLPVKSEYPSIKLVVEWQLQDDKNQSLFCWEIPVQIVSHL
Source text: as §1, §2, §3, §4

Lam5 (ΔTMD) = biological target: T4, Lam5 (ΔTMD) (Saccharomyces cerevisiae, UniProt P43560); assay: Microscale thermophoresis (MST) ligand binding; conditions: soluble Lam5 (ΔTMD)
T4 construct: Lam5 (1–633 aa), and Lam6 (1–621 aa); made in house; host or cells: E. coli BL21
T4 sequence (P43560 1-633): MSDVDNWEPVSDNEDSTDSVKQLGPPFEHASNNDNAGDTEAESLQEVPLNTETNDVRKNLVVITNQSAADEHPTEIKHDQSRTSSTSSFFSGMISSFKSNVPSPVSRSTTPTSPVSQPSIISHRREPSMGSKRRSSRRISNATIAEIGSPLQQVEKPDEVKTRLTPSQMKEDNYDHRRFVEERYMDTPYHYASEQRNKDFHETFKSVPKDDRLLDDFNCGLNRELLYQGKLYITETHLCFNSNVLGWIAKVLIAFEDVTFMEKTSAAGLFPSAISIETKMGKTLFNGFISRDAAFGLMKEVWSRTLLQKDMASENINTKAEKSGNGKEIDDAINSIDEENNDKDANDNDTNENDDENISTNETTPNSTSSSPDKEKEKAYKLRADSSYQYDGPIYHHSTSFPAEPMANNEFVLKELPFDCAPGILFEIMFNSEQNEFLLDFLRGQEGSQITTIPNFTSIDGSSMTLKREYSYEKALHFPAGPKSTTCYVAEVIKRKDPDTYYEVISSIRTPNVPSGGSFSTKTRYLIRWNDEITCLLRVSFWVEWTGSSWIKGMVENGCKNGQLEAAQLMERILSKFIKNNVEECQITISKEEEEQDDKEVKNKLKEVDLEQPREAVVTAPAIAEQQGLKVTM
Source text: (§5) To corroborate these in vivo findings, we expressed soluble versions (ΔTMD) of Lam5 and Lam6 as polyhistidine-tagged proteins and assessed their sterol binding capacity using MST.

Lam6 (ΔTMD) = biological target: T5, Lam6 (ΔTMD) (Saccharomyces cerevisiae, UniProt Q08001); assay: Microscale thermophoresis (MST) ligand binding; conditions: soluble Lam6 (ΔTMD)
T5 construct: Lam5 (1–633 aa), and Lam6 (1–621 aa); made in house; host or cells: E. coli BL21
T5 sequence (Q08001 1-621): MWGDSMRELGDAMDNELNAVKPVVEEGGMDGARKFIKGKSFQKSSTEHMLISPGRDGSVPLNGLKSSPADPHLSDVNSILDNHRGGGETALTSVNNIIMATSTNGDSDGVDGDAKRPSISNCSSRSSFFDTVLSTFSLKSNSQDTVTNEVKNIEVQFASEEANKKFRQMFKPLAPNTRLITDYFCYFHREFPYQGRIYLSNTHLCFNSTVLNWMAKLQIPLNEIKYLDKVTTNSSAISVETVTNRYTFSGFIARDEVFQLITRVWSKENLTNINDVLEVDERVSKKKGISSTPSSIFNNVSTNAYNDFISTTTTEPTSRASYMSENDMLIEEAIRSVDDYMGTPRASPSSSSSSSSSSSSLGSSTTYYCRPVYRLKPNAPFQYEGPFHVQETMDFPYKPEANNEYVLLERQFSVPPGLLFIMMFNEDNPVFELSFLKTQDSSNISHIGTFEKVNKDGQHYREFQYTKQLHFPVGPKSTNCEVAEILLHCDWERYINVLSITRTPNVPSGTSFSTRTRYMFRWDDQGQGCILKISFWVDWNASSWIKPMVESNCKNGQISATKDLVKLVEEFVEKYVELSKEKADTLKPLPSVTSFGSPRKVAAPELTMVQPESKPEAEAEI
Source text: as §5

Lam4^StARkin2 = biological target: T6, Lam4^StARkin2 (Saccharomyces cerevisiae, UniProt P38800); assay: Microscale thermophoresis (MST) ligand binding; conditions: Lam4^StARkin2, pH 7.5
T6 construct: StARkin2, 967–1139 aa, 34.6 kDa; made in house; host or cells: E. coli BL21
T6 sequence (P38800 967-1139): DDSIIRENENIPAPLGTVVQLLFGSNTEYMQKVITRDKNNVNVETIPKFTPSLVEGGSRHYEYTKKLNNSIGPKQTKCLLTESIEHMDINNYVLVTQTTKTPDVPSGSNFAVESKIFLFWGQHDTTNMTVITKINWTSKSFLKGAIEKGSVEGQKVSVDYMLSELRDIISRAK
Source text: (§6) To further characterize these domains, we expressed and purified Ysp1^StARkin, Sip3^StARkin, Lam4^StARkin1, and Lam4^StARkin2 from bacterial cells and assessed their sterol-binding affinities using MST.

Ysp1^StARkin = biological target: T7, Ysp1^StARkin (Saccharomyces cerevisiae, UniProt P38851); assay: Microscale thermophoresis (MST) ligand binding; conditions: pH 7.5
T7 construct: Ysp1^StARkin (765–978 aa, 26.9 kDa); made in house; host or cells: E. coli BL21
T7 sequence (P38851 765-978): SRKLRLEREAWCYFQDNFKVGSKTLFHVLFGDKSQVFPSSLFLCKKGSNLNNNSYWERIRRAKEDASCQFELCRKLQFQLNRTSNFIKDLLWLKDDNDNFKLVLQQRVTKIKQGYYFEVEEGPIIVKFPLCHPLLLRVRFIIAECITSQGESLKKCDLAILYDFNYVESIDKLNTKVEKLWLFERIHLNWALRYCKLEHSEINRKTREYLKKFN
Source text: as §6

Lam4^StARkin1 = biological target: T8, Lam4^StARkin1 (Saccharomyces cerevisiae, UniProt P38800); assay: Microscale thermophoresis (MST) ligand binding; conditions: Lam4^StARkin1, pH 7.5
T8 construct: both StARkin domains of Lam4 (StARkin1, 758–930 aa, 20.3 kDa); made in house; host or cells: E. coli BL21
T8 sequence (P38800 758-930): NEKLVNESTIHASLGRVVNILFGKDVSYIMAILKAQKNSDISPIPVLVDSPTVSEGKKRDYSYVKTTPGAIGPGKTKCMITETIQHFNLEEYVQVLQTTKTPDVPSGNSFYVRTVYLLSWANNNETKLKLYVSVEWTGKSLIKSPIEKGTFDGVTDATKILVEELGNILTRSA
Source text: as §6

Sip3^StARkin = biological target: T9, Sip3^StARkin (Saccharomyces cerevisiae, UniProt P38717); assay: biochemical; assay type: binding
T9 construct: Sip3^StARkin (733–1002 aa, 32.5 kDa); made in house; host or cells: Lactococcus lactis DML1
T9 sequence (P38717 733-1002): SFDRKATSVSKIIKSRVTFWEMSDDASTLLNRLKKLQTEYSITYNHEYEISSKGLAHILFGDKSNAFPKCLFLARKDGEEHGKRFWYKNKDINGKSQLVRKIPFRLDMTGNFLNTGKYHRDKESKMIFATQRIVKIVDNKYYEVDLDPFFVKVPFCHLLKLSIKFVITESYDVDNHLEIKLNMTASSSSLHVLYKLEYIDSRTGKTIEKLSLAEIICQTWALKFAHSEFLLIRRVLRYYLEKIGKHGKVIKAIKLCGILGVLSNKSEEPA
Experimental: as §6
(§7) Purified proteins were fluorescently labeled using the RED-tris-NTA His tag protein labeling kit (NanoTemper Technologies) ([52]). […] Binding by Pry1, Osh4, and the StARkin domains was assessed at pH 7.5, STARD1 at pH 8.5, and NPC2 binding affinity was determined at pH 5.5.
(§8) Samples were centrifuged for 5 min at 15,000g at 4 °C and loaded into standard MST capillaries. The dissociation constant Kd was determined by plotting the fraction of ligand-bound protein against the logarithm of the ligand concentrations, using Prism software (GraphPad).

Osh4 [3] = biological target: T1, Osh4; assay: Microscale thermophoresis (MST) ligand binding; conditions: Osh4, pH 7.5, 50 nM protein
Experimental: (§9) This polyhistidine-tagged protein is site-specific fluorescently labeled (RED-tris-NTA, green star). The labeled protein is incubated with varying concentrations of ligand, loaded into glass capillaries, the capillaries are locally heated with an infrared (IR) laser, generating a temperature gradient, and the rate of temperature-induced diffusion of the ligand-bound protein was recorded and plotted as a function of ligand concentration. B, sterol binding by Pry1, NPC2, Osh4, and STARD1 measured by MST. […] Binding by Pry1, Osh4 was assessed at pH 7.5, STARD1 at pH 8.5, and NPC2 binding affinity was determined at pH 5.5. […] Data shown in panelB represent the mean ± SD of three independent experiments. MST, microscale thermophoresis; NPC2, Niemann-Pick type C2; Pry, pathogen-related in yeast; STARD1, steroidogenic acute regulatory protein 1.
as §7, §8

Pry1 [4] = biological target: T2, Pry1; assay: Microscale thermophoresis (MST) ligand binding; conditions: Pry1, pH 7.5, 50 nM protein
Experimental: as §9, §7, §8

STARD1 = biological target: T10, STARD1 (Homo sapiens, UniProt P49675); assay: Microscale thermophoresis (MST) ligand binding; conditions: STARD1, pH 8.5, 50 nM protein
T10 construct: made in house; host or cells: E. coli BL21
T10 sequence (P49675 64-285): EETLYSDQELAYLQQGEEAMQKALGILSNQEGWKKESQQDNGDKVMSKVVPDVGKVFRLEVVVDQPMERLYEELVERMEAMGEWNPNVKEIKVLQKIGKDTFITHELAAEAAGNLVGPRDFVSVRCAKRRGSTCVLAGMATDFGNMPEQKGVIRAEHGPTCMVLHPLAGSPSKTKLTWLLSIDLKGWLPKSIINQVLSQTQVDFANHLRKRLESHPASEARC
Experimental: as §9, §7, §8

StARkin domain of Lam6 = biological target: T11, StARkin domain of Lam6 (Saccharomyces cerevisiae, UniProt Q08001); assay: MST protein-liposome binding; conditions: Fig. 7F, StARkin domain of Lam6, DOPC/DOPE 80/20 mol% liposomes
T11 construct: Lam6^StARkin (401–579 aa, 22 kDa); made in house; host or cells: Lactococcus lactis DML1
T11 sequence (Q08001 401-579): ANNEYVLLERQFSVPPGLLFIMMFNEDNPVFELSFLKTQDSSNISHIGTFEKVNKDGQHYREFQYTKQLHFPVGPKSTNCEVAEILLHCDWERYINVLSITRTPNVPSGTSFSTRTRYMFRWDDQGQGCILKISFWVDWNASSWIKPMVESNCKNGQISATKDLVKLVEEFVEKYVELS
Experimental: To test whether the GRAM domain of Lam6 could function as a coincidence detector recognizing both PS and ergosterol simultaneously, as observed with the GRAM domain of Aster-B/GRAM1b, we assessed liposome binding by isolated GRAM and StARkin domains ([58], [60]).
Lipids were dried from chloroform stock solutions using a rotary evaporator or under a gentle nitrogen gas stream. The dried lipid film was resuspended in 1 ml liposome buffer (25 mM Tris (pH 7.5), 50 mM NaCl) to a final concentration of 2 mM phospholipids. The phospholipid suspension was then subjected to ten freeze-thaw cycles, alternating between liquid nitrogen and a 55 °C water bath.
The resulting multilamellar liposomes were extruded nineteen times through a polycarbonate filter of 0.8 μm pore size to generate large unilamellar vesicles.

## CC(C)CCC[C@@H](C)[C@H]1CC[C@H]2[C@@H]3CC=C4C[C@@H](O)CC[C@]4(C)[C@H]3CC[C@]12C [cholesterol]
Osh4 [1]
  Kd: 2300 nM
Pry1 [2]
  Kd: 2400 nM
NPC2
  Kd: 1600 nM

## CC(C)CCC[C@@H](C)[C@H]1CC[C@H]2[C@@H]3CC=C4C[C@@H](OS(=O)(=O)O)CC[C@]4(C)[C@H]3CC[C@]12C [cholesterol sulfate]
Lam5 (ΔTMD)
  Kd: 290 nM
Lam6 (ΔTMD)
  Kd: 90 nM
Lam4^StARkin2
  Kd: 340 nM
Ysp1^StARkin
  Kd: 47 nM
Lam4^StARkin1
  Kd: 71 nM
Sip3^StARkin
  Kd: 530 nM
Osh4 [3]
  Kd: 1690 nM
Pry1 [4]
  Kd: 1750 nM
STARD1
  Kd: 64 nM

## CC(C)[C@@H](C)/C=C/[C@@H](C)[C@H]1CC[C@H]2C3=CC=C4C[C@@H](O)CC[C@]4(C)[C@H]3CC[C@]12C [ergosterol]
StARkin domain of Lam6
  Kd: 8600 ± 3400 nM

From publication PMC12493155, “A yeast-based in vivo assay complements in vitro and in silico approaches to characterize sterol-binding by Saccharomyces cerevisiae Lam/Ltc proteins” (The Journal of Biological Chemistry, 2025)
